Earlier results, collected in patent publication US20140120162A1, “Bioadhesive Drug Delivery Compositions” (PEROSPHERE INC., priority 2011, published 2014).
Like-named read-outs stand apart in the source and are kept apart here.

How the values were obtained:
[1] = not given; remark: listed apart in the source
[2] = not given; remark: listed apart in the source

Compound: 1-[(4R,5S)-5-[(2-aminoethyl)amino]-N^2-(10,12-dimethyl-1-oxotetradecyl)-4-hydroxy-L-ornithine]-5-[(3IRI)-3-hydroxy-L-ornithine]pneumocandin B0 diacetate (salt) [Caspofungin acetate]
- pH of a saturated aqueous solution: approximately 6.6
- solubility in ethanol / alcohol [1]: slightly soluble
- solubility in methanol [1]: freely soluble
- solubility in water [1]: freely soluble
- bioavailability ([2]; caspofungin): 0%

Compound: NC(=O)N1c2ccccc2C=Cc2ccccc21 [Carbamazepine, 5H-dibenz[b,f]azepine-5-carboxamide]
- solubility in acetone ([1]; acetone): soluble
- solubility in ethanol / alcohol [1]: soluble
- solubility in water [1]: practically insoluble

Compound: C#C[C@]1(O)CC[C@H]2[C@@H]3CCC4=Cc5oncc5C[C@]4(C)[C@H]3CC[C@@]21C [Danazol, 17a-Pregna-2,4-dien-20-yno[2,3-d]-isoxazol-17-ol]
- half-life ([2]; danazol administered orally): 4 to 5 h
- time of peak concentrations ([2]; danazol administered orally): ≤ 2 h
- increase in plasma concentration on doubling the dose ([2]; danazol, doubling the dose): 30-40%

Compound: NCC1(CC(=O)O)CCCCC1 [Gabapentin]
- bioavailability ([2]; gabapentin, at best, 900 mg dose given three times a day): ≤ 60%
- metabolism in humans ([2]; humans): not appreciably metabolized

Compound: CC(=O)O[C@H]1C(=O)[C@@]2(C)[C@H]([C@H](OC(=O)c3ccccc3)[C@]3(O)C[C@H](OC(=O)[C@H](O)[C@@H](NC(=O)c4ccccc4)c4ccccc4)C(C)=C1C3(C)C)[C@]1(OC(C)=O)CO[C@@H]1C[C@@H]2O [Paclitaxel]
- solubility in water [1]: insoluble

Compound: C=CC[C@@H]1/C=C(\C)C[C@H](C)C[C@H](OC)[C@H]2O[C@@](O)(C(=O)C(=O)N3CCCC[C@H]3C(=O)O[C@H](/C(C)=C/[C@@H]3CC[C@@H](O)[C@H](OC)C3)[C@H](C)[C@@H](O)CC1=O)[C@H](C)C[C@@H]2OC [Tacrolimus]
- solubility in chloroform ([1]; chloroform): very soluble
- solubility in ethanol / alcohol [1]: freely soluble
- solubility in methanol [1]: very soluble
- solubility in water [1]: practically insoluble
- absolute bioavailability ([2]; tacrolimus, 5 mg dose taken twice a day, oral): approximately 17%
